Read-outs that look alike come from different tables or passages of the source.
Key:
[1] = MTT assay for cell viability, A375; format: cell-based; details: human, A375 melanoma cells, A375, 10 µM, ± SD
Method: The A375 cell line is derived from a human skin melanoma carrying two mutant genes, B-RAF and CDKN2 which are associated with melanoma of sun-damaged skin [48]. To determine the cytotoxicity of 3f in A375 melanoma cell lines, MTT studies were conducted.
(§1) The cytotoxic activity of compound was evaluated in B16F10 cells using 3-(4,5-dimethylthiazol-2-yl)-2,5-diphenyltetrazolium bromide (MTT) assay. Cells were seeded in a 96-well plate (5 × 10^3 cells/well) and incubated at 37 °C with samples at different concentrations for 48 h. Following the treatment, cells were incubated with MTT (0.5 mg mL^−1) at 37 °C for 3 h. The MTT-containing medium was then removed, and 100 μL of DMSO was added to each well, mixed thoroughly with a 10 min shake to dissolve formazan crystals. The absorbance of each well was measured at 540 nm.

[2] = test system: B16F10 melanoma cells; assay: Melanin content assay; format: cell-based; details: B16F10, 10 µM, in comparison with the control
Method: B16F10 cells were seeded in six-well plates (1.0 × 10^5 cells/well). After 24 h, the medium was substituted by a fresh one and treated with 3f, and incubated for 48 h. Then, cells were treated with 100 nM α -MSH. […] After incubation cells were washed twice with PBS and harvested using […] trypsin, then dissolved in 300 μL of 1 N NaOH/10% DMSO buffer and boiled for 2 h at 80 °C to solubilize the melanin. The absorbance of the supernatant was measured at 470 nm in a microplate reader. The obtained results were normalized using total protein content.

[3] = MTT assay for cell viability, B16F10; format: cell-based; details: mouse, B16F10 melanoma cells, B16F10, 10 µM, ± SD
Method: as §1

[4] = target: T1, mushroom tyrosinase (Agaricus bisporus, UniProt C7FF04); assay: Determination of the inhibition type (Lineweaver–Burk kinetics); format: biochemical; details: Lineweaver–Burk plot, L-DOPA substrate
T1 construct: purchased Sigma Chemical Co. (St. Louis, MO, USA)
T1 sequence (C7FF04 1-392): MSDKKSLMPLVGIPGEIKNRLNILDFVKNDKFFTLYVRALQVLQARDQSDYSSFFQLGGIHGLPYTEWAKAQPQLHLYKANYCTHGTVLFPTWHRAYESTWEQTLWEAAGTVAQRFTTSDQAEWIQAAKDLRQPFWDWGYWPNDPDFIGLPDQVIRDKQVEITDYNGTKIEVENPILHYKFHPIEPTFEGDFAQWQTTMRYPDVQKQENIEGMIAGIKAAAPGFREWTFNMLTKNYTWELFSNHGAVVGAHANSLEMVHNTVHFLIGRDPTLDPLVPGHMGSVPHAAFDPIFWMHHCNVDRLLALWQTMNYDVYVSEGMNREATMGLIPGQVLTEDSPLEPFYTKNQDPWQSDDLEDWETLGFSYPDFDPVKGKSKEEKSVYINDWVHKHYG
Method: A series of experiments were performed to determine the inhibition kinetics of 3f. The inhibitor concentrations were: 0, 8, 16 μM. Substrate (L-DOPA) concentrations were (0.1, 0.25, 0.5, 0.75 and 1.5 mM) in kinetic studies. Pre-incubation and measurement time was the same as discussed in the mushroom tyrosinase inhibition assay protocol. Maximum initial velocity was determined from the initial linear portion of absorbance up to 10 min after addition of L-DOPA with 1 min interval. The Michaelis constant (Km) and the maximal velocity (Vmax) of the tyrosinase activity were determined by the Lineweaver–Burk plot at various concentrations of L-DOPA as a substrate. The inhibition type of the enzyme was assayed by Lineweaver–Burk plots of the inverse of velocities (1/V) versus the inverse of substrate concentrations 1/[S] mM^−1.

[5] = target: tyrosinase; details: cited from earlier work

## Oc1ccc(C=NN=Cc2ccc(O)cc2O)c(O)c1 [Compound 3f, 4,4′-(Hydrazine-1,2-diylidenebis(methaneylylidene))bis(benzene-1,3-diol)]
[1]
  viability at 48 h, 10 µM: > 82%
[2]
  Melanin content (%): 79.58%
[3]
  viability at 48 h, 10 µM: 60.1 ± 9.82%
[4]
  Vmax and Km values in the presence of increasing concentrations of compound: decreased
[4]; inhibitor 0, 8, 16 μM
  type of inhibition: uncompetitive

## CCOc1cc(/C=N/NC(=O)c2ccc(O)cc2)ccc1O [D]
[5]; hydrazine-containing compound
  IC50: 9.9 µM

## O=C1c2c(O)cc(O)cc2O[C@H](c2ccc(O)cc2O)[C@H]1O [Dihydromorin]
[5]; Fig. 1, flavanol
  IC50: 10.3 µM

## CCOc1cc(/C=N/NC(=O)c2ccc(O)c(OC)c2)ccc1O [E]
[5]; hydrazine-containing compound
  IC50: 1.58 µM

## NC(=S)N/N=C/c1ccc([N+](=O)[O-])cc1 [F]
[5]; hydrazine-containing compound
  IC50: 0.05 µM

## O=c1cc(-c2ccc(O)c(O)c2)oc2cc(O)cc(O)c12 [Luteolin]
[5]; Fig. 1, flavone
  IC50: 60 µM

## O=c1c(O)c(-c2ccc(O)c(O)c2)oc2cc(O)cc(O)c12 [Quercetin]
[5]; Fig. 1, flavonol
  Ki: 29 µM

## Oc1ccc(/C=C/c2cc(O)cc(O)c2)cc1 [Resveratrol, 3,5,4′-trihydroxy-trans-stilbene]
[5]; Fig. 1, stilbenoid
  IC50: 1 to 9 µM
[5]; resveratrol
  IC50: 26.6 µM

## O=C1CC(c2ccc(O)cc2O)Oc2cc(O)cc(O)c21 (stereo not drawn) [Streppogenin]
[5]; Fig. 1, flavanone
  IC50: 1.3 µM

## Oc1ccc(/C=N/c2ccccc2O)c(O)c1 [compound B]
[5]; most potent bibenzyl compound of Oozeki et al.
  IC50: 0.37 µM

## Chalcone
[5]; Fig. 1, chalcone
  IC50: 8.1 µM

## Phthalimide
[5]; Fig. 1, phthalimide
  IC50: 26.2 µM

## Quinazoline
[5]; Fig. 1, quinazoline
  IC50: 0.46 µM
